Series [1] addresses H-2Dd (Mus musculus, UniProt P01900). As to the kind of experiment: Solution phase competition assay. The series is classed as binding. As to conditions: data not shown.
The test system of series [2] is mAb 34-5-8S. Nature of the series: Control: binding of free peptide to the immobilized 34-5-8S antibody surface. The following applies: free peptide without H-2Dd at concentrations as high as 222 uM; SPR.
The nature of series [3]: Solubility of synthetic peptides in water. The series is classed as physicochemical. The following applies: peptides dissolved in dH2O; insoluble ones reconstituted in 20% DMSO.

Sequence of H-2Dd (P01900 whole entry, looked up): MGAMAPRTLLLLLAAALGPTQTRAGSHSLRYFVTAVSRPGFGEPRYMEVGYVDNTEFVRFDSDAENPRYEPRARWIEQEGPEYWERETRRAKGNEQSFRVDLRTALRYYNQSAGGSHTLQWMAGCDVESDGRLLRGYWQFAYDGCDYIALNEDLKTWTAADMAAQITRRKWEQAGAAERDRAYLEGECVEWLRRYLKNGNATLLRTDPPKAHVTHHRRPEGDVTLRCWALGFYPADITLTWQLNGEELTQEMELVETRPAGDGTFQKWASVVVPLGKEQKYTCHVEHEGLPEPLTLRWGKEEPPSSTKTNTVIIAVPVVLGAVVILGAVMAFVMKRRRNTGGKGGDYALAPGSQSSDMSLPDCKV

AGPARAAAL [pD2359]: the “relative binding to H-2Dd” value in series [1] was “binds better than pD239”. In addition, in series [2], the “signal of free peptide on immobilized 34-5-8S” value is below 7 RU. Turning to SGPVALVNF [pD46B], the “solubility in water / aqueous solution” value in series [3] is on record as “relative aqueous insolubility”. For the sequence SGPVALVNFI [pD46A], in series [3], the “solubility in water / aqueous solution” value is “relative aqueous insolubility”.

Values taken from paper PMC2191296 (The Journal of Experimental Medicine, 1993).
